{"source": "ChEMBL document CHEMBL1201862", "about": "“PubChem BioAssay data set” (2004)", "key": {"[1]": {"test": "microbe, parasite or virus in culture", "format": "functional", "conditions": "Mycobacterium tuberculosis"}, "[2]": {"target": "T1, Replicative DNA helicase DnaB (Mycobacterium tuberculosis, UniProt P9WMR3)", "T1 sequence (P9WMR3 whole entry)": "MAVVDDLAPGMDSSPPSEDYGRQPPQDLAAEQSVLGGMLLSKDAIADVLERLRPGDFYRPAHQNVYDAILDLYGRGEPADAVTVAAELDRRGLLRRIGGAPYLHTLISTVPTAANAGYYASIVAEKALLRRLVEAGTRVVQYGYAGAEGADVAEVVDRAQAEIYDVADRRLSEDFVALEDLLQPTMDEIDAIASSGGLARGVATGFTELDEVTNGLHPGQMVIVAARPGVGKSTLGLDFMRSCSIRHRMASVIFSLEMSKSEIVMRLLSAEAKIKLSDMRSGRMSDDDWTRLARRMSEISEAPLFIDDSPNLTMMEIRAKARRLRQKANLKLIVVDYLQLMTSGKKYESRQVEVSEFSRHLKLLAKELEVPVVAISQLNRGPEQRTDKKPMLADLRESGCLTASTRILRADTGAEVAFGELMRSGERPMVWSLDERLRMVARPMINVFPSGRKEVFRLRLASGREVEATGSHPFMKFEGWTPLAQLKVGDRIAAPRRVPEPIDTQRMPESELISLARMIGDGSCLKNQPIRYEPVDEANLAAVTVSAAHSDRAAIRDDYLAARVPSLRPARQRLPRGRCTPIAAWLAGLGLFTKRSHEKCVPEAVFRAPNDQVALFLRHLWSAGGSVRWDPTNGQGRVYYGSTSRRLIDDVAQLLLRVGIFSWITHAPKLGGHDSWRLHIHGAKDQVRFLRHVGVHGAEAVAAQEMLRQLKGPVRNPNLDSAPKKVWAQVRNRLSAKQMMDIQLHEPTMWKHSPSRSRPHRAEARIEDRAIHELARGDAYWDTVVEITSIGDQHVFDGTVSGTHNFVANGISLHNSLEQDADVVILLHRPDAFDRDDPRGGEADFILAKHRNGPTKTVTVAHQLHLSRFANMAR", "test": "DnaB intein splicing inhibitors, dose response, biochemical, cell-free fluorescence (AID 449749)", "format": "functional"}, "Protein RecA": {"target": "T2, Protein RecA (Mycobacterium tuberculosis, UniProt P9WHJ3)", "T2 sequence (P9WHJ3 whole entry)": "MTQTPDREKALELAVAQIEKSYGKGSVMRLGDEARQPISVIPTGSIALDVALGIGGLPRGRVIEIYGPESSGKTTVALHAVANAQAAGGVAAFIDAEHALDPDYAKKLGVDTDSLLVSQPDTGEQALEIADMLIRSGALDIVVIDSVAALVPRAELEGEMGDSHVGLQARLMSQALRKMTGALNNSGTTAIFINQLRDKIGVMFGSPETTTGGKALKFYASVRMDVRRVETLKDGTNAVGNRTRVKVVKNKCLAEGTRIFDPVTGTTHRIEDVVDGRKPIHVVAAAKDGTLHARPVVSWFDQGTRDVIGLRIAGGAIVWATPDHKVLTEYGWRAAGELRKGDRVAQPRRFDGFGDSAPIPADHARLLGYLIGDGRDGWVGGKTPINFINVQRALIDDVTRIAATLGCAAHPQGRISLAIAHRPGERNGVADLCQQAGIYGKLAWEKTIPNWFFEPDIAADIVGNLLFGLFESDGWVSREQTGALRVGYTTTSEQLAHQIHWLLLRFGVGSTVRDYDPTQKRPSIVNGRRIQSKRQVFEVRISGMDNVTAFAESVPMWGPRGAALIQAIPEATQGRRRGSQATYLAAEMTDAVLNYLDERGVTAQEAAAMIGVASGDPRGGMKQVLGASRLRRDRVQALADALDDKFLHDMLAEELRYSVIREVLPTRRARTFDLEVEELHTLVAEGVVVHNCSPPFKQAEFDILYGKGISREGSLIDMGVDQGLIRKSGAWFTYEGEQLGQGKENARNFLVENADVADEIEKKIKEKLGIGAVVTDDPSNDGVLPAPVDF", "test": "Fluorescence Cell-Free Homogeneous Dose Retest to Identify Inhibitors of RecA-Intein Splicing Activity. [Related pubchem assays (depositor defined):AID2097, AID2223, AID489010, AID492950]", "format": "functional"}, "[3]": {"test": "Luminescence Cell-Based Dose Confirmation HTS to Identify Activators of 5'UTR Stem-Loop Driven Alpha-Synuclein mRNA Translation in H4 Neuroglioblastoma Cells. [Related pubchem assays: 1829 (Project Summary), 1814 (Primary HTS)]", "format": "functional"}, "[4]": {"test": "Luminescence Cell-Based Dose Response HTS to Identify Activators of Luciferase Translation or Activity in H4 […] Cells. [Related pubchem assays: 1829 (Project Summary), 1814 (Primary HTS)]", "format": "functional"}, "H4": {"test_system": "H4", "test": "Luminescence Cell-Based Dose Response HTS to Identify Activators of 5'UTR Stem-Loop Driven Prion Protein mRNA Translation in H4 Neuroglioblastoma Cells. [Related pubchem assays: 1829 (Project Summary), 1814 (Primary HTS)]", "format": "functional", "conditions": "Homo sapiens"}, "[5]": {"target": "Luciferin 4-monooxygenase (Photinus pyralis, UniProt P08659)", "sequence (P08659 whole entry)": "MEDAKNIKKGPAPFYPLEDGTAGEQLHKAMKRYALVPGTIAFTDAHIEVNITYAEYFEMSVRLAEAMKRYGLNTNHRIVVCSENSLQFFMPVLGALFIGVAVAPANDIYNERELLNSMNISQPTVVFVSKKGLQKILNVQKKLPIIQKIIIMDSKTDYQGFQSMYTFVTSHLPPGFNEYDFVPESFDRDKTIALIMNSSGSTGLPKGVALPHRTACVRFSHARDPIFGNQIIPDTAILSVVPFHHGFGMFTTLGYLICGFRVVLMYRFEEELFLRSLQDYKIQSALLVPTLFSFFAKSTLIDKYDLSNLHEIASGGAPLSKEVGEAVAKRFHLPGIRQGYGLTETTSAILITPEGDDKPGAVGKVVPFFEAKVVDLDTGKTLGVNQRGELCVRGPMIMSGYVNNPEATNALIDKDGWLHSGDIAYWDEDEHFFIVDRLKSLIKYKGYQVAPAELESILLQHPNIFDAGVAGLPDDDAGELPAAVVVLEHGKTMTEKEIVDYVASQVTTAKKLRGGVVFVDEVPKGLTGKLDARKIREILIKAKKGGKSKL", "test": "inhibition of purified Photinus pyralis luciferase – biochemical, luminescence, dose response (AID 1891)"}, "[6]": {"test": "Luminescence Cell-Based Dose Confirmation HTS to Identify Inhibitors of Platelet Dense Granule Release. [Related pubchem assays: 1663 (Primary HTS), 1678 (Summary of Project)]", "format": "functional"}, "[7]": {"test": "viability of PTEN-deleted HCT116 cells – cell-based, HCT116 PTEN knockout, dose response (AID 1047);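 further: cells exposed to compound for 60 hours before readout; potency for loss of cell viability measured by luminescence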", "format": "functional"}, "[8]": {"test": "viability of HCT116 lacking mutant beta-catenin – cell-based, human colon tumor, dose response (AID 1045);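 further: cells exposed to compound for 60 hours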", "format": "functional"}, "[9]": {"test_system": "Streptococcus sp. 'group A'", "test": "Streptococcus pyogenes SK(-)GAS viability under kanamycin – luminescence, BacTiterGlo, confirmation, counter-screen for streptokinase expression inhibitor project, dose response (AID 1900)", "format": "functional, organism-based"}, "Streptokinase A": {"target": "T3, Streptokinase A (Streptococcus pyogenes serotype M1, UniProt P10520)", "T3 sequence (P10520 whole entry)": "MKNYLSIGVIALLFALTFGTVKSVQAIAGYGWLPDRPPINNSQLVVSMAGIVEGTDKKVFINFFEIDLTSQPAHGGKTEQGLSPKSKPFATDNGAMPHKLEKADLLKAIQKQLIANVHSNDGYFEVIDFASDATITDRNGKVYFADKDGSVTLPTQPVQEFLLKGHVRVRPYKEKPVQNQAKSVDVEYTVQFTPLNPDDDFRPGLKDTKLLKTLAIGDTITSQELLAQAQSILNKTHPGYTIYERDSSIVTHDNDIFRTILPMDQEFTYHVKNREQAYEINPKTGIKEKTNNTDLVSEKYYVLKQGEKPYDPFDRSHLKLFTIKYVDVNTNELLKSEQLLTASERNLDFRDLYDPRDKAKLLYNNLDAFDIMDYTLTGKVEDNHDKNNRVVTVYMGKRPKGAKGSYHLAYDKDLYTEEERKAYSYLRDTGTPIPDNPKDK", "test": "viability-normalized secreted streptokinase activity reduction – plasminogen activation absorbance, OD405, dose response (AID 1914);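 further: secreted streptokinase activity via plasminogen activation per viability signal from cell pellet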", "format": "functional, Streptococcus pyogenes M1 GAS"}, "[10]": {"test": "Trypanosoma cruzi growth suppression in host cells – NIH3T3 host cells, beta-gal luminescence, confirmation (AID 2044);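 further: luminescent beta-galactosidase reporter signal from transgenic T. cruzi replicating inside host cells; inhibitors lower the luminescence signal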", "format": "functional, cell-based"}, "[11]": {"test": "NIH3T3 cell viability loss – ATP luminescence, mouse fibroblasts, counter-screen, dose response (AID 2010);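 further: cells exposed to compound for about 90 hours before reading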", "format": "functional, cell-based"}, "Streptococcus": {"test_system": "Streptococcus", "test": "GAS UMAA2166 growth inhibition – luminescence, BacTiterGlo, counter-screen for streptokinase expression inhibitor project, dose response (AID 1915);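 further: potency for reduction of bacterial viability or growth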", "format": "functional, organism-based"}, "Fatty acid synthase [12]": {"target": "T4, Fatty acid synthase (Homo sapiens, UniProt P49327)", "T4 sequence (P49327 whole entry)": "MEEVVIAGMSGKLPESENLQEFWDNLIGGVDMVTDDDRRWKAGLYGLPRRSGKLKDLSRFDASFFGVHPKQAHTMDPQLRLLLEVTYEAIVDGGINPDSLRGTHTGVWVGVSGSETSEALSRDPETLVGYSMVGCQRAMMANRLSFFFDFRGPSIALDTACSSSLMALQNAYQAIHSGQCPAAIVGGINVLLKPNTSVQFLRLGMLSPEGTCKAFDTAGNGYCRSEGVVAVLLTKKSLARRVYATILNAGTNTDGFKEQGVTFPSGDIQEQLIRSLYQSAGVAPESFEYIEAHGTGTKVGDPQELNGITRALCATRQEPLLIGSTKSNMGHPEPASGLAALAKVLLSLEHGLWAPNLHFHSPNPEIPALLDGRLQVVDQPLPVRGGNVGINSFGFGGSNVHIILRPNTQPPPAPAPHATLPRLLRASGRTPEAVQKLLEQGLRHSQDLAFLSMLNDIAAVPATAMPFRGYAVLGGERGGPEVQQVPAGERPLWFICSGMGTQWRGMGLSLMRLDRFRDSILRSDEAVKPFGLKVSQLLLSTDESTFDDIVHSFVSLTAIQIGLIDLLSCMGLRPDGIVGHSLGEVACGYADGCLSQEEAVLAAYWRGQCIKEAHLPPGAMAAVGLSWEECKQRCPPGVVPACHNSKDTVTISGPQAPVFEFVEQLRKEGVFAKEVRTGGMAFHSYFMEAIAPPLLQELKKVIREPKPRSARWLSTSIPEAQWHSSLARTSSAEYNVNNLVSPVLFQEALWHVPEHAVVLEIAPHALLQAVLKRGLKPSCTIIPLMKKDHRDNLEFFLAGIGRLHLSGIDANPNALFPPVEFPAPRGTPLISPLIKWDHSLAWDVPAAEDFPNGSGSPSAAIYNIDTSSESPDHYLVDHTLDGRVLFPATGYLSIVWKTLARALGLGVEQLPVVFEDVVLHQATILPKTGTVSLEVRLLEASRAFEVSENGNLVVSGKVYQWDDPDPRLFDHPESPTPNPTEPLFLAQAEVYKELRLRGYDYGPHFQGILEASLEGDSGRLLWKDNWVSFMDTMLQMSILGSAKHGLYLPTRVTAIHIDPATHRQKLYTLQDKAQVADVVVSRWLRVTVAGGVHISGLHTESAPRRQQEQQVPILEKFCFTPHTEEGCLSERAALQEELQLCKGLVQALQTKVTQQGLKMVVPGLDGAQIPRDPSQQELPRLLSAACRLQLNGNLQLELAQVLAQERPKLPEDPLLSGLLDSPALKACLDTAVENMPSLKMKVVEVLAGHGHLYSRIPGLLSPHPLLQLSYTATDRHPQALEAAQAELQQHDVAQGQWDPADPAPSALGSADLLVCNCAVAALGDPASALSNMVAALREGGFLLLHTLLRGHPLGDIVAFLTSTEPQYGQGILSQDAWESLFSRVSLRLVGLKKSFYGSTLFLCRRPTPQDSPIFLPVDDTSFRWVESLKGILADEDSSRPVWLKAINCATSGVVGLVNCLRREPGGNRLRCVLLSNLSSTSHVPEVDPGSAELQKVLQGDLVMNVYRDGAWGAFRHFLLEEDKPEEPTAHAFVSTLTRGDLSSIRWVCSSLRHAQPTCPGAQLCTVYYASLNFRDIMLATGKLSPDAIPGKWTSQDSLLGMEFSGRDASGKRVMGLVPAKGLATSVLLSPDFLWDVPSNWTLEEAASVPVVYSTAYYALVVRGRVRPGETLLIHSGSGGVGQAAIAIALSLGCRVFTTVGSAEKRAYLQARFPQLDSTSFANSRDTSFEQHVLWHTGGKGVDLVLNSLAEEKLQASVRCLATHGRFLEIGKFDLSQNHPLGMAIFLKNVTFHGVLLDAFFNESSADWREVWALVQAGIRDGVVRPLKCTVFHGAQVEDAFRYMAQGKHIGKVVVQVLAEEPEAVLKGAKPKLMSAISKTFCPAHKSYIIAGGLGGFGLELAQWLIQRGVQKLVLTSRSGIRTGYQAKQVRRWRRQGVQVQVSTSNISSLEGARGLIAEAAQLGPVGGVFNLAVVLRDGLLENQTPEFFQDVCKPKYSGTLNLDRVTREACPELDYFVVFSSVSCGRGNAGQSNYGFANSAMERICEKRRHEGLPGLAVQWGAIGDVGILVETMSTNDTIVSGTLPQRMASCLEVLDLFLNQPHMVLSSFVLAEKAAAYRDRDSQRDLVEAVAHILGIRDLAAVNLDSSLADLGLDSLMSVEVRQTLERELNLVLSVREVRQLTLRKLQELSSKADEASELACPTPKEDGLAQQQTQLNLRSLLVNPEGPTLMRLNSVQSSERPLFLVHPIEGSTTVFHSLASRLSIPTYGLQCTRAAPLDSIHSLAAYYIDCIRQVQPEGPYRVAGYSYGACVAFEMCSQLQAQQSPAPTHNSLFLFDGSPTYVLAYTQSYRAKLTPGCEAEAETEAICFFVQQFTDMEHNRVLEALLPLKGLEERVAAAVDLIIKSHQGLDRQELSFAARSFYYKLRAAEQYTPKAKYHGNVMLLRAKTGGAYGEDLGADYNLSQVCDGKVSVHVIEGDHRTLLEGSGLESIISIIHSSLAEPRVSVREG", "test": "inhibition of human FAS-TE enzyme activity – biochemical, endpoint fluorescence intensity, uHTS hits, dose response (AID 624327);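 further: fluorescence from hydrolysis of an O-methyl fluorescein acyl ester substrate by the enzyme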", "format": "functional"}, "Fatty acid synthase [13]": {"target": "T4, Fatty acid synthase", "test": "inhibition of human FAS-TE enzyme activity – biochemical, kinetic fluorescence intensity, dose response (AID 624326);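 further: rate of fluorescence rise from hydrolysis of a fluorogenic O-methyl fluorescein ester substrate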", "format": "functional"}, "[14]": {"test": "NIH-3T3 fibroblast cytotoxicity, dose response, cytotoxicity control, cell-based, fluorescence, Alamar Blue, secondary assay (AID 2327);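 further: NIH-3T3 mouse fibroblasts cultured with fluconazole at 8 µg/mL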", "format": "functional"}, "Cytochrome P450 2C19": {"target": "Cytochrome P450 2C19 (Homo sapiens, UniProt P33261)", "sequence (P33261 whole entry)": "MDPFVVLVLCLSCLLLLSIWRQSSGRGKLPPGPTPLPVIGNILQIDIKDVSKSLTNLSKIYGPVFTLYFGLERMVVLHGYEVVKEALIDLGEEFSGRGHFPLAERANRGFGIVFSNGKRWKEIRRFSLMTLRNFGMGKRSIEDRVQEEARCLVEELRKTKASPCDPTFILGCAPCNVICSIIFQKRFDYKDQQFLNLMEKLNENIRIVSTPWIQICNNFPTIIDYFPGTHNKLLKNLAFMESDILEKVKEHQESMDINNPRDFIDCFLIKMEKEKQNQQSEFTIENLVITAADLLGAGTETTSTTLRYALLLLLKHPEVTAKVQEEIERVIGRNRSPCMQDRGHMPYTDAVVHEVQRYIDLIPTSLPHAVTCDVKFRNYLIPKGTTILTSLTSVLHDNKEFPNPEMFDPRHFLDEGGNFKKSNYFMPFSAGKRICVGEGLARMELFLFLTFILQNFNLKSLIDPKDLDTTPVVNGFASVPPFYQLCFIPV", "test": "Cytochrome panel assay with activity outcomes. Panel member name: p450-cyp2c19 Compounds with AC50 equal or less than 10 uM are considered active", "format": "functional", "conditions": "read-out: AC50"}, "Cytochrome P450 3A4": {"target": "Cytochrome P450 3A4 (Homo sapiens, UniProt P08684)", "sequence (P08684 whole entry)": "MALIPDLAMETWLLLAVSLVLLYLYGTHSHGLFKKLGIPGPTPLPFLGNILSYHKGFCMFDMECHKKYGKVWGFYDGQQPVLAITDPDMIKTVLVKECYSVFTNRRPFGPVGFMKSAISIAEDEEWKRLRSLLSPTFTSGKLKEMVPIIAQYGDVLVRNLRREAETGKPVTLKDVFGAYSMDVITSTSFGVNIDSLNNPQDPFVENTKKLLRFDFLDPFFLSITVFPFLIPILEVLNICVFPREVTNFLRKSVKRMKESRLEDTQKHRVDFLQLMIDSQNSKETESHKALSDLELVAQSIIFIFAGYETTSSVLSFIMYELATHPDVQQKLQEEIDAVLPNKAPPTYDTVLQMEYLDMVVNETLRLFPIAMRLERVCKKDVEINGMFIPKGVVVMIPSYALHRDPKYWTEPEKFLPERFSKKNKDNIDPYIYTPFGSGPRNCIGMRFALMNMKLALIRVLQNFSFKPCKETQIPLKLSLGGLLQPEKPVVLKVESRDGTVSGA"}, "Cytochrome P450 2C9": {"target": "Cytochrome P450 2C9 (Homo sapiens, UniProt P11712)", "sequence (P11712 whole entry)": "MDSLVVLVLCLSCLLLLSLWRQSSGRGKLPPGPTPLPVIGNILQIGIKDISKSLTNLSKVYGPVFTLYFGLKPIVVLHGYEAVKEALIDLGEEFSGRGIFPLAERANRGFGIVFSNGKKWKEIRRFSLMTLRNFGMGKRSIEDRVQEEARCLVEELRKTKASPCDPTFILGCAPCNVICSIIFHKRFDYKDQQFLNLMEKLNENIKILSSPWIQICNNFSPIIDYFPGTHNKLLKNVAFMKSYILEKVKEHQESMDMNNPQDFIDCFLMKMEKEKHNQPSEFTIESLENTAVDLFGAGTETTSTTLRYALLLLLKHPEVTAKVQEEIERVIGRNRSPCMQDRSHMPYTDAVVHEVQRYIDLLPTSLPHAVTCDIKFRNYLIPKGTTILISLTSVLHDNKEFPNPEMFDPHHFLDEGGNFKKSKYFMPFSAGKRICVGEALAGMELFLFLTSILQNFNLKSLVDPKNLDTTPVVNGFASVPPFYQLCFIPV"}}, "note": "Calls of active or inactive are those of the source.", "data": [{"compound": "Clc1ccc(CNc2nc(CN3CCOCC3)nc3scc(-c4ccccc4)c23)cc1", "values": [{"measurement": "CC50", "setting": "[1]", "value": "> 40 µM (active)"}]}, {"compound": "CC(C)(C)c1csc(NC(=O)c2c(F)c(F)c(F)c(F)c2F)n1", "values": [{"measurement": "CC50", "setting": "[1]", "value": "34 µM (active)"}, {"measurement": "AC50", "setting": "[2]", "value": "26 µM (active)"}, {"measurement": "EC50", "setting": "Protein RecA", "value": "18.4 µM (active)"}]}, {"compound": "Cc1ccc2[nH]c(/C(C#N)=C/c3c[nH]nc3-c3ccc(F)cc3)nc2c1", "values": [{"measurement": "EC50", "setting": "[3]", "value": "> 120 µM (not active)"}, {"measurement": "EC50", "setting": "[4]", "value": "5.96 µM (active)"}, {"measurement": "EC50", "setting": "H4", "value": "> 120 µM (not active)"}, {"measurement": "EC50", "setting": "[5]", "value": "> 112 µM (not active)"}, {"measurement": "EC50", "setting": "[6]", "value": "46.2 µM (active)"}, {"measurement": "CC50", "setting": "[1]", "value": "26.9 µM (active)"}, {"measurement": "EC50", "setting": "[7]", "value": "7.74 µM (active)"}, {"measurement": "EC50", "setting": "[8]", "value": "9.64 µM (active)"}]}, {"compound": "Cc1cccc(NC(=O)c2[nH]cnc2C(=O)N[C@@H](CCCCNC(=O)OC(C)(C)C)C(=O)OC(C)(C)C)c1", "values": [{"measurement": "EC50", "setting": "[9]", "value": "3.46 µM (active)"}, {"measurement": "EC50", "setting": "Streptokinase A", "value": "> 150 µM (not active)"}, {"measurement": "EC50", "setting": "[10]", "value": "2.44 µM (active)"}, {"measurement": "EC50", "setting": "[11]", "value": "> 60 µM (not active)"}, {"measurement": "EC50", "setting": "Streptococcus", "value": "8.6 µM (active)"}, {"measurement": "IC50", "setting": "Fatty acid synthase [12]", "value": "1.12 µM (active)"}, {"measurement": "IC50", "setting": "Fatty acid synthase [13]", "value": "0.658 µM (active)"}]}, {"compound": "CCS(=O)(=O)c1ccc(-c2cccc(NC(=O)COc3ccc(Cl)cc3)c2)nn1", "values": [{"measurement": "EC50", "setting": "[14]", "value": "> 150 µM (inactive)"}]}, {"compound": "COc1ccc(N2COC3c4cccc5cccc(c45)C32)cc1", "note": "(stereo not given)", "values": [{"measurement": "CC50", "setting": "[1]", "value": "> 40 µM (active)"}]}, {"compound": "Cc1ccc(OC(=O)c2oc3ccc(F)cc3c2C)c(C)c1", "values": [{"measurement": "CC50", "setting": "[1]", "value": "3.94 µM (active)"}, {"measurement": "AC50", "setting": "Cytochrome P450 2C19", "value": "11.2 µM (inconclusive)"}, {"measurement": "AC50", "setting": "Cytochrome P450 3A4", "value": "39.8 µM (inconclusive)"}, {"measurement": "AC50", "setting": "Cytochrome P450 2C9", "value": "10 µM (inconclusive)"}]}]}
